Key:
human orexin-2 receptor [1] = target: T1, human orexin-2 receptor (Homo sapiens, UniProt O43614); settings: comparison compound disclosed in U.S. Pat. No. 8,685,961; cited from earlier work
T1 construct: expressed in transfected cells; host or cells: CHO cells (grown under G418 selection)
T1 sequence (O43614 1-444): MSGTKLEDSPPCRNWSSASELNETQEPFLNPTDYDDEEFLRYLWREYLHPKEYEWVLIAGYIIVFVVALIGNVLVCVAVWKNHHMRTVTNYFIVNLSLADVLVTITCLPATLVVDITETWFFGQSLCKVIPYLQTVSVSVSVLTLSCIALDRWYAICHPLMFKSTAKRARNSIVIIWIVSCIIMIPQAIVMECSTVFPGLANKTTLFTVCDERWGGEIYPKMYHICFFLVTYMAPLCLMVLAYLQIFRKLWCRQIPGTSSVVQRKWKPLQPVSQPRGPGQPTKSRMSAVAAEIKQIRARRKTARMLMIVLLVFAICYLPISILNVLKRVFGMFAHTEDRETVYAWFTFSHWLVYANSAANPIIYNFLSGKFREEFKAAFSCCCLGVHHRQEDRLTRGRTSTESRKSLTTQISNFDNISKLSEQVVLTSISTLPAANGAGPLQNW

rat orexin-1 receptor = target: T2, rat orexin-1 receptor (Rattus norvegicus, UniProt P56718); test: FLIPR Ca2+ flux assay, OX1R; assay type: cell-based; settings: CHO cells expressing the rat orexin-1 receptor; agonist 70 pM Ala-6,12 orexin-A
T2 construct: expressed in transfected cells; host or cells: CHO cells (grown under G418 selection)
T2 sequence (P56718 1-416): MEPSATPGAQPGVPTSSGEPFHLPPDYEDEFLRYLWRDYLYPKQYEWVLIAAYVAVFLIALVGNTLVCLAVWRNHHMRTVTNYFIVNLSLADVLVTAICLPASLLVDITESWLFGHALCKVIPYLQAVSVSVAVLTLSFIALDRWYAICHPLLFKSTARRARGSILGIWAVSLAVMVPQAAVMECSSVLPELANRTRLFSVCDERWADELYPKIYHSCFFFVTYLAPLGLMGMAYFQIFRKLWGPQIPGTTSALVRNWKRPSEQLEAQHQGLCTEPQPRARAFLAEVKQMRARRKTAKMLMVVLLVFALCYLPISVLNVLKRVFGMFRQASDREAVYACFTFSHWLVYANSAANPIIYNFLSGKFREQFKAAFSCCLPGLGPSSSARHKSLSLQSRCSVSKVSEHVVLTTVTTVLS
Protocol: (§1) The utility of the compounds in accordance with the present invention as orexin receptor OX1R and/or OX2R antagonists may be readily determined without undue experimentation by methodology well known in the art, including the “FLIPR Ca^2+ Flux Assay” (Okumura et al., Biochem. Biophys. Res. Comm. 280:976-981, 2001). In a typical experiment the OX1 and OX2 receptor antagonistic activity of the compounds of the present invention was determined in accordance with the following experimental method. For intracellular calcium measurements, Chinese hamster ovary (CHO) cells expressing the rat orexin-1 receptor or the human orexin-2 receptor, are grown in Iscove's modified DMEM containing 2 mM L-glutamine, […], 1% hypoxanthine-thymidine supplement, 100 U/ml penicillin, 100 μg/ml streptomycin and 10% heat-inactivated fetal calf serum (FCS). The cells are seeded at 20,000 cells/well into Becton-Dickinson black 384-well clear bottom sterile plates coated with poly-D-lysine. All reagents were from GIBCO-Invitrogen Corp. The seeded plates are incubated overnight at 37° C. and 5% CO2. Ala-6,12 human orexin-A as the agonist is prepared as a 1 mM stock solution in 1% bovine serum albumin (BSA) and diluted in assay buffer (HBSS containing 20 mM HEPES, 0.1% BSA and 2.5 mM probenecid, pH7.4) for use in the assay at a final concentration of 70 pM. Test compounds are prepared as 10 mM stock solution in DMSO, then diluted in 384-well plates, first in DMSO, then assay buffer. On the day of the assay, cells are washed 3 times with 100 μl assay buffer and then incubated for 60 min (37° C., 5% CO2) in 60 μl assay buffer containing 1 μM Fluo-4AM ester, 0.02% pluronic acid, and 1% BSA. The dye loading solution is then aspirated and cells are washed 3 times with 100 μl assay buffer. 30 μl of that same buffer is left in each well. Within the Fluorescent Imaging Plate Reader (FLIPR, Molecular Devices), test compounds are added to the plate in a volume of 25 μl, incubated for 5 min and finally 25 μl of agonist is added. Fluorescence is measured for each well at 1 second intervals for 5 minutes and the height of each fluorescence peak is compared to the height of the fluorescence peak induced by 70 pM Ala-6,12 orexin-A with buffer in place of antagonist. For each antagonist, IC50 value (the concentration of compound needed to inhibit 50% of the agonist response) is determined. Alternatively, compound potency can be assessed by a radioligand binding assay (described in Bergman et. al. Bioorg. Med. Chem. Lett. 2008, 18, 1425-1430) in which the inhibition constant (Ki) is determined in membranes prepared from CHO cells expressing either the OX1 or OX2 receptor. The intrinsic orexin receptor antagonist activity of a compound which may be used in the present invention may be determined by these assays.

human orexin-2 receptor [2] = target: T1, human orexin-2 receptor; test: FLIPR Ca2+ flux assay, OX2R; assay type: cell-based; settings: for IC50: CHO cells expressing the human orexin-2 receptor, agonist 70 pM Ala-6,12 orexin-A; for Fold Selective: OX1R FLIPR / OX2R FLIPR
Protocol: as §1

SMILES	IC50 (rat orexin-1 receptor) [nM]	IC50 (human orexin-2 receptor [2]) [nM]	Fold Selective (human orexin-2 receptor [2])	selectivity between the orexin-1 receptor and the orexin-2 receptor (human orexin-2 receptor [1])
Cc1ccc(-n2nccn2)c(C(=O)N2CCCN(c3nc4ccccc4o3)CC2)c1 [Example B-3]				greater selectivity for the orexin-1 receptor than for the orexin-2 receptor
Cc1cc(C)nc(N2CC3CC2CN(C(=O)c2ccccc2OCC(F)F)C3)n1 (stereo not shown) [Example 37, 3-{[2-(2,2-difluoroethoxy)-phenyl]carbonyl}-6-(4,6-dimethylpyrimidin-2-yl)-3,6-diazabicyclo[3.2.1]octane]	851	14	61	
Cc1cc(C)nc(N2CC3CC2CN(C(=O)c2ccccc2OC(F)(F)F)C3)n1 (stereo not shown) [Example 15, 6-(4,6-dimethylpyrimidin-2-yl)-3-{[2-(trifluoromethoxy)-phenyl]carbonyl}-3,6-diazabicyclo[3.2.1]octane]	1530	30	51	
Cc1cc(C)nc(N2CC3CC2CN(C(=O)c2ccccc2C2CC2)C3)n1 (stereo not shown) [Example 11, 3-[(2-cyclopropylphenyl)-carbonyl]-6-(4,6-dimethylpyrimidin-2-yl)-3,6-diazabicyclo[3.2.1]octane]	613	13	47	
Cc1cc(C#N)nc(N2CC3CC2CN(C(=O)c2ccccc2CS(C)(=O)=O)C3)n1 (stereo not shown) [Example 7, 6-methyl-2-(3-(2-((methylsulfonyl)methyl)benzoyl)-3,6-diazabicyclo[3.2.1]octan-6-yl)pyrimidine-4-carbonitrile]	> 10000	61	>164	
Cc1cc(C#N)nc(N2CC3CC2CN(C(=O)c2cccnc2OCC(F)F)C3)n1 (stereo not shown) [Example 4, 2-(3-{[2-(2,2-difluoroethoxy)pyridin-3-yl]carbonyl}-3,6-diazabicyclo[3.2.1]oct-6-yl)-6-methylpyrimidine-4-carbonitrile]	3300	19	174	
Cc1cc(C)nc(N2CC3CC2CN(C(=O)c2nccnc2-n2cccn2)C3)n1 (stereo not shown) [Example 20, 6-(4,6-dimethylpyrimidin-2-yl)-3-{[3-(1H-pyrazol-1-yl)pyrazin-2-yl]carbonyl}-3,6-diazabicyclo[3.2.1]octane]	3400	50	68	
Cc1cc(C)nc(N2CC3CC2CN(C(=O)c2cccnc2C2CC2)C3)n1 (stereo not shown) [Example 35, 3-[(2-cyclopropylpyridin-3-yl)carbonyl]-6-(4,6-dimethylpyrimidin-2-yl)-3,6-diazabicyclo[3.2.1]octane]	> 10000	47	>213	

Continued, in another order:

IC50 (rat orexin-1 receptor) [nM]	IC50 (human orexin-2 receptor [2]) [nM]	Fold Selective (human orexin-2 receptor [2])	SMILES	selectivity between the orexin-1 receptor and the orexin-2 receptor (human orexin-2 receptor [1])
1370	13	106	Cc1cc(C)nc(N2CC3CC2CN(C(=O)c2cccnc2OCC2CC2)C3)n1 (stereo not shown) [Example 39, 3-{[2-(cyclopropyl-methoxy)pyridin-3-yl]carbonyl}-6-(4,6-dimethylpyrimidin-2-yl)-3,6-diazabicyclo-[3.2.1]octane]	
6450	39	165	Cc1cc(C)nc(N2CC3CC2CN(C(=O)c2nccnc2OCC(C)(F)F)C3)n1 (stereo not shown) [Example 53, (3-(2,2-difluoropropoxy)pyrazin-2-yl)(6-(4,6-dimethylpyrimidin-2-yl)-3,6-diazabicyclo[3.2.1]octan-3-yl)methanone]	
> 10000	90	>111	CO[C@@H]1CCN(c2ncccc2C(=O)N2CC3CC(C2)N(c2nc(C)cc(C)n2)C3)C1 (stereo partly drawn) [Example 46, (6-(4,6-dimethylpyrimidin-2-yl)-3,6-diazabicyclo[3.2.1]octan-3-yl)(2-((R)-3-methoxypyrrolidin-1-yl)pyridin-3-yl)methanone]	
932	21	44	Cc1cc(C)nc(N2CC3CC2CN(C(=O)c2cccnc2OCCC(F)(F)F)C3)n1 (stereo not shown) [Example 44, 6-(4,6-dimethylpyrimidin-2-yl)-3-{[2-(3,3,3-trifluoropropoxy)pyridin-3-yl]carbonyl}-3,6-diazabicyclo[3.2.1]octane]	

Reference: patent US9994570B2, “Bridged diazepane orexin receptor antagonists” (MERCK SHARP & DOHME CORP., priority 2014, dated 2018)
